Target: TEAD4 (Homo sapiens, UniProt Q15561)
Test: ITC
Format: binding

Chain of TEAD4 (Q15561 217-434): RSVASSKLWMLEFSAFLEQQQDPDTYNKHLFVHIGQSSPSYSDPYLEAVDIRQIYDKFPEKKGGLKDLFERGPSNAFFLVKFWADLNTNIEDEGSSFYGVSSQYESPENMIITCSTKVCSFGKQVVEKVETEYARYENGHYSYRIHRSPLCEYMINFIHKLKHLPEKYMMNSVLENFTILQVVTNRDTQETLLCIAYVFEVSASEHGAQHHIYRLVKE

SMILES: O=C(O)c1ccccc1Nc1cccc(C(F)(F)F)c1 [FA, flufenamic acid]
- Kd: ~73 µM

Reference: publication PMC4660270 (Structure (London, England : 1993), 2015)
